Tests used:
Assay type in all cases: in vivo
[1] = system: Italian ryegrass (Lolium multiflorum); test: Test A preemergence, visual injury rating
How it was run: (§1)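 Greenhouse pot test, loam/sand soil. Formulation: non-phytotoxic solvent mix plus surfactant. Pre: directed spray onto soil after sowing. Post: plants at 1–2 leaf, 2–10 cm. Rated visually vs untreated controls at ~10 d, 0 (no effect) to 100 (complete control).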

[2] = system: barnyardgrass (Echinochloa crus-galli); test: Test A preemergence, visual injury rating
How it was run: as §1

[3] = system: giant foxtail (Setaria faberii); test: Test A preemergence, visual injury rating
How it was run: as §1

kochia (Kochia scoparia) [4] = test: Test A preemergence, visual injury rating
How it was run: as §1

[5] = system: pigweed (Amaranthus retroflexus); test: Test A preemergence, visual injury rating
How it was run: as §1

[6] = system: ragweed (common ragweed, Ambrosia elatior); test: Test A preemergence, visual injury rating
How it was run: as §1

[7] = system: Italian ryegrass (Lolium multiflorum); test: Test A postemergence, visual injury rating
How it was run: as §1

[8] = system: barnyardgrass (Echinochloa crus-galli); test: Test A postemergence, visual injury rating; conditions: 0 is no effect, 100 is complete control; for Barnyardgrass plant response rating: 0 to 100 scale, approximately 10 days
How it was run: as §1

[9] = system: blackgrass (Alopecurus myosuroides); test: Test A postemergence, visual injury rating
How it was run: as §1

corn (Zea mays) = test: Test A postemergence, visual injury rating
How it was run: as §1

[10] = system: galium (catchweed bedstraw, Galium aparine); test: Test A postemergence, visual injury rating
How it was run: as §1

[11] = system: giant foxtail (Setaria faberii); test: Test A postemergence, visual injury rating
How it was run: as §1

kochia (Kochia scoparia) [12] = test: Test A postemergence, visual injury rating
How it was run: as §1

[13] = system: pigweed (Amaranthus retroflexus); test: Test A postemergence, visual injury rating
How it was run: as §1

[14] = system: ragweed (common ragweed, Ambrosia elatior); test: Test A postemergence, visual injury rating
How it was run: as §1

[15] = system: wheat (Triticum aestivum); test: Test A postemergence, visual injury rating
How it was run: as §1

[16] = system: barnyardgrass (Echinochloa crus-galli); test: Test B flooded paddy test, plant response rating; conditions: 250 g ai/ha; Flood; scale of 0 to 100 where 0 is no effect and 100 is complete control; 13 to 15 days
How it was run: (§2)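 Test compounds are applied straight into paddy water held 3 cm above the soil surface, with that flood maintained for the whole test. After 13 to 15 days in the greenhouse, each species is scored visually relative to controls.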

[17] = system: ducksalad (Heteranthera limosa); test: Test B flooded paddy test, plant response rating; conditions: 250 g ai/ha; Flood; scale of 0 to 100 where 0 is no effect and 100 is complete control; 13 to 15 days
How it was run: as §2

rice (Oryza sativa) = test: Test B flooded paddy test, plant response rating; conditions: 250 g ai/ha; Flood; scale of 0 to 100 where 0 is no effect and 100 is complete control; 13 to 15 days
How it was run: as §2

[18] = system: sedge, umbrella (small-flower umbrella sedge, Cyperus difformis); test: Test B flooded paddy test, plant response rating; conditions: 250 g ai/ha; Flood; scale of 0 to 100 where 0 is no effect and 100 is complete control; 13 to 15 days
How it was run: as §2

[19] = 31 g ai/ha, 0 to 100 scale, 0 no effect, 100 complete control
[20] = 125 g ai/ha, 0 to 100 scale (0 no effect, 100 complete control)
[21] = 31 g ai/ha, 0 to 100 scale (0 no effect, 100 complete control)
[22] = 125 g ai/ha, 0 to 100 scale, 0 is no effect, 100 is complete control, approximately 10 days
[23] = 500 g ai/ha, 0 to 100 scale (0 no effect, 100 complete control)
[24] = 500 g ai/ha, 0 is no effect, 100 is complete control

| SMILES | Plant response rating, Ryegrass, Italian [1, 20] | Plant response rating, Barnyardgrass [2, 20] | Plant response rating, Foxtail, Giant [3, 20] | Plant response rating, Kochia (kochia (Kochia scoparia) [4]; [20]) | Plant response rating, Pigweed [5, 20] | Plant response rating, Ragweed [6, 20] | Ryegrass, Italian plant response rating [7, 22] | Barnyardgrass plant response rating ([8]; 125 g ai/ha) | Blackgrass plant response rating [9, 22] | Corn plant response rating (corn (Zea mays); [22]) | Galium plant response rating [10, 22] | Foxtail, Giant plant response rating [11, 22] | Kochia plant response rating (kochia (Kochia scoparia) [12]; [22]) | Pigweed plant response rating [13, 22] | Ragweed plant response rating [14, 22] | Wheat plant response rating [15, 22] | Plant response rating, Barnyardgrass [16] | Plant response rating, Ducksalad [17] | Plant response rating, Rice (rice (Oryza sativa)) | Plant response rating, Sedge, Umbrella [18] | further results |
| --- | --- | --- | --- | --- | --- | --- | --- | --- | --- | --- | --- | --- | --- | --- | --- | --- | --- | --- | --- | --- | --- |
| FC(F)(F)CCCCc1c(Oc2ncc(Cl)cn2)cccc1C1CC1 [Compound 135] | 10 | 40 | 50 | 0 | 20 | 0 | 10 | 10 | 20 | 20 | 80 | 20 | 60 | 90 | 10 | 0 | 0 | 85 | 20 | 85 | Plant response rating, Ryegrass, Italian [1, 19]: 0; Plant response rating, Barnyardgrass [2, 19]: 0; Plant response rating, Foxtail, Giant [3, 19]: 0; Plant response rating, Kochia (kochia (Kochia scoparia) [4]; [19]): 0; Plant response rating, Pigweed [5, 19]: 0; Plant response rating, Ragweed [6, 19]: 0; Ryegrass, Italian plant response rating [7, 21]: 0; Barnyardgrass plant response rating ([8]; 31 g ai/ha): 0; Blackgrass plant response rating [9, 21]: 0; Corn plant response rating (corn (Zea mays); [21]): 10; Galium plant response rating [10, 21]: 50; Foxtail, Giant plant response rating [11, 21]: 10; Kochia plant response rating (kochia (Kochia scoparia) [12]; [21]): 10; Pigweed plant response rating [13, 21]: 40; Ragweed plant response rating [14, 21]: 0; Wheat plant response rating [15, 21]: 0 |
| O=Cc1c(Cl)cccc1Oc1ncc(Cl)cn1 [Compound 139] | 0 | 0 | 0 | 0 | 0 | 50 | 0 | 0 | 0 | 0 | 0 | 0 | 0 | 0 | 0 | 0 | 0 | 30 | 0 | 0 | Ryegrass, Italian plant response rating [1, 23]: 0; Barnyardgrass plant response rating [2, 23]: 0; Foxtail, Giant plant response rating [3, 23]: 0; Kochia plant response rating (kochia (Kochia scoparia) [4]; [23]): 0; Pigweed plant response rating [5, 23]: 0; Ragweed plant response rating [6, 23]: 0; Ryegrass, Italian plant response rating (0 to 100 scale) [7, 24]: 20; Barnyardgrass plant response rating (0 to 100 scale) ([8]; 500 g ai/ha): 0; Blackgrass plant response rating (0 to 100 scale) [9, 24]: 0; Corn plant response rating (0 to 100 scale) (corn (Zea mays); [24]): 0; Galium plant response rating (0 to 100 scale) [10, 24]: 0; Foxtail, Giant plant response rating (0 to 100 scale) [11, 24]: 0; Kochia plant response rating (0 to 100 scale) (kochia (Kochia scoparia) [12]; [24]): 0; Pigweed plant response rating (0 to 100 scale) [13, 24]: 0; Ragweed plant response rating (0 to 100 scale) [14, 24]: 0; Wheat plant response rating (0 to 100 scale) [15, 24]: 0 |
| N#CCc1ccccc1Oc1ncc(Cl)cn1 [Compound 140] | 10 | 0 | 0 | 40 | 10 | 0 | 0 | 0 | 0 | 0 | 0 | 0 | 30 | 20 | 0 | 0 | 0 | 0 | 0 | 0 | Plant response rating, Ryegrass, Italian [1, 19]: 10; Plant response rating, Barnyardgrass [2, 19]: 0; Plant response rating, Foxtail, Giant [3, 19]: 0; Plant response rating, Kochia (kochia (Kochia scoparia) [4]; [19]): 0; Plant response rating, Pigweed [5, 19]: 0; Plant response rating, Ragweed [6, 19]: 0; Ryegrass, Italian plant response rating [7, 21]: 0; Barnyardgrass plant response rating ([8]; 31 g ai/ha): 0; Blackgrass plant response rating [9, 21]: 0; Corn plant response rating (corn (Zea mays); [21]): 0; Galium plant response rating [10, 21]: 0; Foxtail, Giant plant response rating [11, 21]: 0; Kochia plant response rating (kochia (Kochia scoparia) [12]; [21]): 0; Pigweed plant response rating [13, 21]: 0; Ragweed plant response rating [14, 21]: 0; Wheat plant response rating [15, 21]: 0 |
| CCCCCC(C#N)c1ccccc1Oc1ncc(Cl)cn1 (stereo not drawn) [Compound 141, 2-[(5-chloro-2-pyrmidinyl)oxy]-α-pentylbenzeneacetonitrile] | 10 | 60 | 100 | 20 | 90 | 30 | 10 | 20 | 10 | 20 | 60 | 40 | 60 | 70 | 20 | 0 | 20 | 70 | 10 | 50 | Plant response rating, Ryegrass, Italian [1, 19]: 0; Plant response rating, Barnyardgrass [2, 19]: 0; Plant response rating, Foxtail, Giant [3, 19]: 10; Plant response rating, Kochia (kochia (Kochia scoparia) [4]; [19]): 10; Plant response rating, Pigweed [5, 19]: 0; Plant response rating, Ragweed [6, 19]: 0; Ryegrass, Italian plant response rating [7, 21]: 0; Barnyardgrass plant response rating ([8]; 31 g ai/ha): 10; Blackgrass plant response rating [9, 21]: 0; Corn plant response rating (corn (Zea mays); [21]): 10; Galium plant response rating [10, 21]: 40; Foxtail, Giant plant response rating [11, 21]: 20; Kochia plant response rating (kochia (Kochia scoparia) [12]; [21]): 50; Pigweed plant response rating [13, 21]: 40; Ragweed plant response rating [14, 21]: 0; Wheat plant response rating [15, 21]: 0 |
| N#Cc1cccc(Oc2ncc(Cl)cn2)c1C(=O)CCC(F)(F)F [Compound 142] | 0 | 0 | 0 | 0 | 0 | 0 | 0 | 0 | 0 | 10 | 20 | 0 | 10 | 20 | 20 | 0 | 0 | 0 | 0 | 0 | Plant response rating, Ryegrass, Italian [1, 19]: 0; Plant response rating, Barnyardgrass [2, 19]: 0; Plant response rating, Foxtail, Giant [3, 19]: 0; Plant response rating, Kochia (kochia (Kochia scoparia) [4]; [19]): 0; Plant response rating, Pigweed [5, 19]: 0; Plant response rating, Ragweed [6, 19]: 0; Ryegrass, Italian plant response rating [7, 21]: 0; Barnyardgrass plant response rating ([8]; 31 g ai/ha): 0; Blackgrass plant response rating [9, 21]: 0; Corn plant response rating (corn (Zea mays); [21]): 0; Galium plant response rating [10, 21]: 0; Foxtail, Giant plant response rating [11, 21]: 0; Kochia plant response rating (kochia (Kochia scoparia) [12]; [21]): 0; Pigweed plant response rating [13, 21]: 0; Ragweed plant response rating [14, 21]: 0; Wheat plant response rating [15, 21]: 0 |
